Laboratory results from patent publication US20240115654A1, “INTRAVENOUS ADMINISTRATION OF ENGINEERED ANTIMICROBIAL AMPHIPHILIC PEPTIDES” (priority 2021, published 2024).
≈ marks a conversion by molar mass, not a printed value. Where two headings read alike, the source gives them in different places. Peptide text beside a SMILES is read from it.

What was measured:
Format in all cases: cell-based
[1] = system: Enterococcus faecalis ATCC 29212 (VSE; QC); settings: Enterococcus faecalis ATCC 29212 (VSE; QC)
Summary of the method: (§1)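 MHB II + 0.002% P80, CLSI microdilution, 2-fold peptide series (top 32 mcg/mL final), ~5×10^5 CFU/mL, 35° C, 16–20 hrs. MIC = lowest conc. with no visible growth.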

[2] = system: Enterococcus faecalis ATCC 700802 (V583 VRE)
Summary of the method: as §1

[3] = system: Escherichia coli ATCC 35218 (ESBL); settings: Escherichia coli ATCC 35218 (ESBL)
Summary of the method: as §1

[4] = system: Escherichia coli ATCC BAA-2471 (NDM-1); settings: Escherichia coli ATCC BAA-2471 (NDM-1)
Summary of the method: as §1

[5] = system: Pseudomonas aeruginosa ATCC 27853 (non-MDR; QC)
Summary of the method: as §1

[6] = system: Pseudomonas aeruginosa ATCC BAA-2109 (MDR); settings: Pseudomonas aeruginosa ATCC BAA-2109 (MDR)
Summary of the method: as §1

[7] = system: Staphylococcus aureus ATCC 29213 (MSSA; QC); settings: Staphylococcus aureus ATCC 29213 (MSSA; QC)
Summary of the method: as §1

[8] = system: Staphylococcus aureus ATCC 43300 (MRSA)
Summary of the method: as §1

[9] = system: Staphylococcus aureus NRS382 (USA100; HA-MRSA)
Summary of the method: as §1

[10] = system: Streptococcus agalactiae ATCC 13813
Summary of the method: as §1

[11] = system: Streptococcus pneumoniae ATCC 49619 (QC); settings: Streptococcus pneumoniae ATCC 49619 (QC)
Summary of the method: as §1

[12] = system: Streptococcus pyogenes ATCC 49399; settings: Streptococcus pyogenes ATCC 49399
Summary of the method: as §1

Row | Compound | MIC [1] [µg/mL] | MIC ([2]; ATCC 700802) [µg/mL] | MIC [3] [µg/mL] | MIC [4] [µg/mL] | MIC ([5]; ATCC 27853) [µg/mL] | MIC [6] [µg/mL] | MIC [7] [µg/mL] | MIC ([8]; ATCC 43300) [µg/mL] | MIC ([9]; USA100) [µg/mL] | MIC [10] [µg/mL] | MIC [11] [µg/mL] | MIC [12] [µg/mL] | MIC ([2]; Enterococcus faecalis ATCC 700802 (V583 VRE)) [µg/mL] | MIC ([5]; Pseudomonas aeruginosa ATCC 27853 (non-MDR; QC)) [µg/mL] | MIC ([8]; Staphylococcus aureus ATCC 43300 (MRSA)) [µg/mL] | MIC ([9]; Staphylococcus aureus NRS382 (USA100; HA-MRSA)) [µg/mL]
1 | CC(C)[C@H](NC(=O)[C@H](Cc1c[nH]c2ccccc12)NC(=O)[C@H](CCCNC(=N)N)NC(=O)[C@H](CCCNC(=N)N)NC(=O)[C@@H](NC(=O)[C@@H](NC(=O)[C@H](CCCNC(=N)N)NC(=O)[C@@H](NC(=O)[C@@H](NC(=O)[C@H](CCCNC(=N)N)NC(=O)[C@H](CCCNC(=N)N)NC(=O)[C@H](Cc1c[nH]c2ccccc12)NC(=O)[C@@H](NC(=O)[C@H](CCCNC(=N)N)NC(=O)[C@H](CCCNC(=N)N)NC(=O)[C@@H](NC(=O)[C@H](CCCNC(=N)N)NC(=O)[C@H](CCCNC(=N)N)NC(=O)[C@@H](NC(=O)[C@H](Cc1c[nH]c2ccccc12)NC(=O)[C@H](CCCNC(=N)N)NC(=O)[C@@H](N)CCCNC(=N)N)C(C)C)C(C)C)C(C)C)C(C)C)C(C)C)C(C)C)C(C)C)C(=O)N[C@@H](CCCNC(=N)N)C(=O)N[C@@H](CCCNC(=N)N)C(N)=O [SEQ ID NO: 1] (H-RRWVRRVRRVWRRVVRVVRRWVRR-NH2) | 8 (≈ 2.35 µM) | 4 (≈ 1.18 µM) | 8 (≈ 2.35 µM) | 2 (≈ 0.588 µM) | 8 (≈ 2.35 µM) | 4 (≈ 1.18 µM) | 8 (≈ 2.35 µM) | 4 (≈ 1.18 µM) | 4 (≈ 1.18 µM) | 8 (≈ 2.35 µM) | 16 (≈ 4.71 µM) | 8 (≈ 2.35 µM) |  |  |  | 
2 | Colistin [reference compound] | >32 |  | 0.12 | 0.06 |  | 0.12 | >32 |  |  | >32 | >32 | >32 | >32 | 0.25 | >32 | >32
